Patent publication US12173018B2, “Penicillin-binding protein inhibitors” (priority 2018, dated 2024)
pEC50: −log10 of the molar value. In brackets after ≈: the same amount, converted by molar mass. Structures can show the parent of a compound that is named as a salt. Where two headings read alike, the source gives them in different places.

How the values were obtained:
E. coli AG100A = test: microbe, parasite or virus in culture; assay type: cell-based; conditions: Escherichia coli, read-out: MIC E. coli AG100A
Method in brief: (§1)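 Strains are tested by standard CLSI broth microdilution. Log-phase cells, diluted by OD600 to 5×10^5 CFU/mL, meet 2-fold compound series and incubate 16-20 hours at 37° C before the lowest growth-free concentration is recorded.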

K. pneumoniae UMM = test: microbe, parasite or virus in culture; assay type: cell-based; conditions: Klebsiella pneumoniae; K. pneumoniae UMM producing SHV-5 and KPC-2; read-out: MIC K. pneumoniae UMM
Method in brief: as §1

E. coli 901C = test: microbe, parasite or virus in culture; assay type: cell-based; conditions: Escherichia coli; hyper-permeable E. coli 901C, broth microdilution; read-out: MIC E. coli 901C
Method in brief: as §1

E. coli ATCC 25922 = test: Broth microdilution MIC, E. coli ATCC 25922; assay type: cell-based; conditions: Escherichia coli
Method in brief: as §1

[1] = test system: engineered strain of Escherichia coli harboring CTX-M15; test: microbe, parasite or virus in culture; assay type: cell-based; conditions: for MIC: Escherichia coli, read-out: Microbiological Activity (MIC in mg/L), E. coli DH5α/pLBII-CTX-M15, engineered strain producing CTX-M15
E. coli PBP3 = E. coli PBP3 (Escherichia coli (strain K12), UniProt P0AD68); test: E. coli PBP3 Bocillin-FL fluorescence polarization competition binding assay
E. coli PBP3, sequence (P0AD68 whole entry): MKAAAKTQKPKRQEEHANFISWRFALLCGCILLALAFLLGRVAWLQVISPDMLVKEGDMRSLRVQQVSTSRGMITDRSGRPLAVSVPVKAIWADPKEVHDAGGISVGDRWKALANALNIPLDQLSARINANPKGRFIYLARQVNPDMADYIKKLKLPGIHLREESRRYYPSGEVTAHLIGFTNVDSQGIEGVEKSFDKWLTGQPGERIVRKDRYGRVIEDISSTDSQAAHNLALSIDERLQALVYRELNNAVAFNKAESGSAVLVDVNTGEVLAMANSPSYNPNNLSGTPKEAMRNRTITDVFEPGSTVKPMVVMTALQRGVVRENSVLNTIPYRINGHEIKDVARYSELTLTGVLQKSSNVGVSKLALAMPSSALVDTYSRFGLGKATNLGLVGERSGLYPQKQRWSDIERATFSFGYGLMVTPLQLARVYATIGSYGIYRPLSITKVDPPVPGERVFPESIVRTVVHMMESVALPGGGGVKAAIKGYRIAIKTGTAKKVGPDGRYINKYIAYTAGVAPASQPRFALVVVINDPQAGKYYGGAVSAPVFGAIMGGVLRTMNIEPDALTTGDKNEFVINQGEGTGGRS
Method in brief: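 Competition against 0.1 μM Bocillin-FL for binding to 1.5 μM purified protein, read by fluorescence polarization for 60 min. Compounds tested from 0 to 1000 μM; EC50 taken as the concentration reducing probe binding.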

[2] = test system: E. coli DH5α empty pLBII vector control strain; test: microbe, parasite or virus in culture; assay type: cell-based, Escherichia coli; conditions: for MIC: Escherichia coli, read-out: Microbiological Activity (MIC in mg/L), E. coli DH5α/pLBII
Method: Briefly, cryo-preserved bacterial cultures of challenge strains are streaked for isolation on appropriate agar medium, in this case Mueller Hinton II agar. Following incubation to allow growth of the colonies, plates are sealed with parafilm and stored refrigerated for up to two weeks. For preparation of assay inoculum and to ensure low variability, at least 5 colonies are picked from the agar plates with an inoculating loop and aseptically transferred to a culture tube containing 3 mL of Mueller-Hinton Broth (supplemented with divalent cations to required levels based on Manufacturers' certification). The broth culture is grown for 3-5 hours at 37° C. with shaking at 200 rpm. Meanwhile, 2-fold serial dilutions of test compounds are conducted in a 96 well plate with a final volume of 75 μL per well at 2-fold the final desired concentration. After the dilution plates are set up the growing cultures are then diluted in a cuvette containing MH II broth and the optical density is measured at 600 nm. The Inoculum is diluted such that 75 μL of this culture in Mueller-Hinton Broth results in a starting bacterial concentration of 5×10^5 CFU/mL when added to the dilution plates. The plates are incubated for 16-20 hours at 37° C. The MIC values are read visually as the lowest concentration well with no bacterial growth.
To determine if test compounds were affected by CTX-M15, the most abundant extended spectrum […] in clinical settings worldwide, the inhibition of the growth of an engineered strain of Escherichia coli harboring CTX-M15 was tested. This strain was constructed by cloning the gene encoding CTX-M15 into the NdeI and BamHI restriction endonuclease sites of plasmid pLBII, placing the gene(s) under the control of the Lac promoter. The constructed expression plasmid for CTX-M15 was used to transform competent E. coli DH5α cells to make the engineered strain, including an empty pLBII vector control strain. The classic cell based broth microdilution MIC assay was employed as described above with the addition of control antibiotics, known to be degraded by β-lactamases (Ceftazidime, piperacillin and piperacillin+tazobactam).

E. coli AG100 = test: Broth microdilution MIC, E. coli AG100 (wild-type parent); assay type: cell-based; conditions: Escherichia coli; wild-type parent E. coli AG100, broth microdilution; read-out: MIC E. coli AG100
Method in brief: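 Broth microdilution in cation-supplemented Mueller-Hinton broth, 2-fold serial compound dilutions, inoculum 5×10^5 CFU/mL from 3-5 h log culture.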

E. coli PBP1b = E. coli PBP1b (Escherichia coli (strain K12), UniProt P02919); test: Radioligand competition binding assay with 14C-labeled boronic acid probe, PBP1b
E. coli PBP1b, sequence (P02919 whole entry): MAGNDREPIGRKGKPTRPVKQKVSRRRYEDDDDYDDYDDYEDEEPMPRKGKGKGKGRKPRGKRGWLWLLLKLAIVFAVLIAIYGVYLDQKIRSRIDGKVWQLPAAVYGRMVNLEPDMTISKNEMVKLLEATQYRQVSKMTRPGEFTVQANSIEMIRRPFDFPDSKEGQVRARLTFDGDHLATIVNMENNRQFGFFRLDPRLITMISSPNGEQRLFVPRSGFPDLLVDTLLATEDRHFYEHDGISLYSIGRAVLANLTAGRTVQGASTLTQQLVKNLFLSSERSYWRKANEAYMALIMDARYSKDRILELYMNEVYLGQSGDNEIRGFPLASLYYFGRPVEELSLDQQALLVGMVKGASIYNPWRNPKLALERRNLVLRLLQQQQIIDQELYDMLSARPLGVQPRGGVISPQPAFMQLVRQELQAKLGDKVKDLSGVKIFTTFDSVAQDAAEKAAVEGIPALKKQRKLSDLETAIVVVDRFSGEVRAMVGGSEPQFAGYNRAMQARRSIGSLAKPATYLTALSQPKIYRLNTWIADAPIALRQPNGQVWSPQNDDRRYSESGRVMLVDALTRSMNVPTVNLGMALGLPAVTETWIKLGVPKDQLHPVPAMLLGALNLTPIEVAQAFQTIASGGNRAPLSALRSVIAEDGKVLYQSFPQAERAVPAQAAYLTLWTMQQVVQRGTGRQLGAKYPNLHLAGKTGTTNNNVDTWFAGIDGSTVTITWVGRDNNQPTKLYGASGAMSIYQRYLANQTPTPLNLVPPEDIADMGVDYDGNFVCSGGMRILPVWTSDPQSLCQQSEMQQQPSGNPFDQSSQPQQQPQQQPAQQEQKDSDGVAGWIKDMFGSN

[3] = ATCC25922, read-out: MIC E. coli 25922

| SMILES | MIC [1] | pEC50 (E. coli PBP3) | MIC [2] | other results |
| --- | --- | --- | --- | --- |
| Nc1nc(C(NC(=O)N2CCN(CCF)C(=O)C2=O)C(=O)N[C@H]2Cc3cccc(C(=O)O)c3OB2O)c(Cl)s1 (stereo partly drawn) [Example 13, (3R)-3-(2-(2-amino-5-chlorothiazol-4-yl)-2-(4-(2-fluoroethyl)-2,3-dioxopiperazine-1-carboxamido)acetamido)-2-hydroxy-3,4-dihydro-2H-benzo[e][1,2]oxaborinine-8-carboxylic acid] | 8 to 16 mg/L (≈ 13.7 to 27.5 µM) | 3.30 to 4.52 | 8 to 16 mg/L (≈ 13.7 to 27.5 µM) | MIC (E. coli AG100A): 2 to 4 µg/mL; MIC (K. pneumoniae UMM): 32 to 64 µg/mL; MIC (E. coli 901C): < 0.25 µg/mL; MIC (E. coli ATCC 25922; ATCC25922, E. coli ATCC 25922, broth microdilution, read-out: MIC E. coli 25922): 32 to 64 µg/mL; MIC (E. coli AG100): 32 to 64 µg/mL |
| CCN1CCN(C(=O)N[C@H](CC(=O)O)C(=O)N[C@H]2Cc3cccc(C(=O)O)c3OB2O)C(=O)C1=O [Example 23, (R)-3-((R)-3-carboxy-2-(4-ethyl-2,3-dioxopiperazine-1-carboxamido)propanamido)-2-hydroxy-3,4-dihydro-2H-benzo[e][1,2]oxaborinine-8-carboxylic acid] | > 512 mg/L | < 3.30 | > 512 mg/L | pEC50 (E. coli PBP1b): < 4.00 |
| CCN1CCN(C(=O)NC(C(=O)N[C@H]2Cc3cccc(C(=O)O)c3OB2O)c2csc(N)n2)CC1=O (stereo partly drawn) [Example 18, (3R)-3-(2-(2-aminothiazol-4-yl)-2-(4-ethyl-3-oxopiperazine-1-carboxamido)acetamido)-2-hydroxy-3,4-dihydro-2H-benzo[e][1,2]oxaborinine-8-carboxylic acid] | 128 to 256 mg/L (≈ 248 to 496 µM) | 3.30 to 4.52 | 128 to 256 mg/L (≈ 248 to 496 µM) |  |
| CCN1CCN(C(=O)N[C@H](CN)C(=O)N[C@H]2Cc3cccc(C(=O)O)c3OB2O)C(=O)C1=O [Example 11, (R)-3-((R)-3-amino-2-(4-ethyl-2,3-dioxopiperazine-1-carboxamido)propanamido)-2-hydroxy-3,4-dihydro-2H-benzo[e][1,2]oxaborinine-8-carboxylic acid, trifluoroacetic acid salt] | 128 to 256 mg/L |  | 128 to 256 mg/L | pEC50 (E. coli PBP1b): > 5.00 |
| CCN1CCN(C(=O)N[C@@H](C(=O)N[C@@H]2C(=O)N3[C@@H]2SC(C)(C)[C@@H]3C(=O)O)c2ccccc2)C(=O)C1=O [piperacillin, reference compound] |  |  |  | MIC in CTX-M15 producer compared with parent strain with empty pLBII plasmid ([1]; engineered E. coli DH5α with CTX-M15 vs empty vector control): weaker MICs in the CTX-M15 producer; Microbiological Activity (MIC in mg/L), E. coli DH5α/pLBII-CTX-M15 ([1]; engineered strain producing CTX-M15): B (B represents an MIC of 128 to 256 μg/mL); Microbiological Activity (MIC in mg/L), E. coli DH5α/pLBII [2]: F (F represents an MIC<1 μg/mL) |
| CCN1CCN(C(=O)C[C@@H](N)C(=O)N[C@H]2Cc3cccc(C(=O)O)c3OB2O)C(=O)C1=O [Example 32, (R)-3-((R)-2-amino-4-(4-ethyl-2,3-dioxopiperazin-1-yl)-4-oxobutanamido)-2-hydroxy-3,4-dihydro-2H-benzo[e][1,2]oxaborinine-8-carboxylic acid] | > 512 mg/L |  | > 512 mg/L |  |
| CCN1CCN(C(=O)N2C[C@H](O)C[C@@H]2C(=O)N[C@H]2Cc3cccc(C(=O)O)c3OB2O)C(=O)C1=O [Example 28, (R)-3-((2R,4R)-1-(4-ethyl-2,3-dioxopiperazine-1-carbonyl)-4-hydroxypyrrolidine-2-carboxamido)-2-hydroxy-3,4-dihydro-2H-benzo[e][1,2]oxaborinine-8-carboxylic acid] | > 512 mg/L |  | > 512 mg/L |  |
| Nc1nc(C(NC(=O)c2cccc(O)c2O)C(=O)N[C@H]2Cc3cccc(C(=O)O)c3OB2O)cs1 (stereo partly drawn) [Example 25, (3R)-3-(2-(2-aminothiazol-4-yl)-2-(2,3-dihydroxybenzamido)acetamido)-2-hydroxy-3,4-dihydro-2H-benzo[e][1,2]oxaborinine-8-carboxylic acid] | > 512 mg/L |  | > 512 mg/L | pEC50 (E. coli PBP1b): > 5.00 |
| CCN1CCN(C(=O)C[C@H](N)C(=O)N[C@H]2Cc3cccc(C(=O)O)c3OB2O)C(=O)C1=O [Example 19, (R)-3-((S)-2-amino-4-(4-ethyl-2,3-dioxopiperazin-1-yl)-4-oxobutanamido)-2-hydroxy-3,4-dihydro-2H-benzo[e][1,2]oxaborinine-8-carboxylic acid] | > 512 mg/L |  | > 512 mg/L |  |
| CCN1CCN(C(=O)NC(C(=O)N[C@H]2Cc3cccc(C(=O)O)c3OB2O)c2cc(OC)c(OC)c(OC)c2)C(=O)C1=O (stereo partly drawn) [Example 30, (3R)-3-(2-(4-ethyl-2,3-dioxopiperazine-1-carboxamido)-2-(3,4,5-trimethoxyphenyl)acetamido)-2-hydroxy-3,4-dihydro-2H-benzo[e][1,2]oxaborinine-8-carboxylic acid] | > 512 mg/L |  | > 512 mg/L |  |
| CCN1CCN(C(=O)NCC(CN)(CO)C(=O)N[C@H]2Cc3cccc(C(=O)O)c3OB2O)C(=O)C1=O (stereo partly drawn) [Example 15, (3R)-3-(3-amino-2-((4-ethyl-2,3-dioxopiperazine-1-carboxamido)methyl)-2-(hydroxymethyl)propanamido)-2-hydroxy-3,4-dihydro-2H-benzo[e][1,2]oxaborinine-8-carboxylic acid, trifluoroacetic acid salt] | > 512 mg/L |  | > 512 mg/L |  |
| CCN1CCN(C(=O)N2C[C@@H](O)C[C@@H]2C(=O)N[C@H]2Cc3cccc(C(=O)O)c3OB2O)C(=O)C1=O [Example 9, (R)-3-((2R,4S)-1-(4-ethyl-2,3-dioxopiperazine-1-carbonyl)-4-hydroxypyrrolidine-2-carboxamido)-2-hydroxy-3,4-dihydro-2H-benzo[e][1,2]oxaborinine-8-carboxylic acid] | > 512 mg/L |  | > 512 mg/L | MIC (E. coli AG100A): > 128 µg/mL; MIC (K. pneumoniae UMM): > 128 µg/mL; MIC (E. coli 901C): > 128 µg/mL; MIC (E. coli ATCC 25922; [3]): > 128 µg/mL; MIC (E. coli AG100): > 128 µg/mL |
| CCN1CCN(C(=O)NC(C(=O)N[C@H]2Cc3cccc(C(=O)O)c3OB2O)c2nsc(N)n2)C(=O)C1=O (stereo partly drawn) [Example 10, (3R)-3-(2-(5-amino-1,2,4-thiadiazol-3-yl)-2-(4-ethyl-2,3-dioxopiperazine-1-carboxamido)acetamido)-2-hydroxy-3,4-dihydro-2H-benzo[e][1,2]oxaborinine-8-carboxylic acid] | 8 to 16 mg/L (≈ 15.1 to 30.1 µM) |  | 8 to 16 mg/L (≈ 15.1 to 30.1 µM) | MIC (E. coli AG100A): 2 to 4 µg/mL; MIC (K. pneumoniae UMM): 8 to 16 µg/mL; MIC (E. coli 901C): 0.5 to 1 µg/mL; MIC (E. coli ATCC 25922; [3]): 8 to 16 µg/mL; MIC (E. coli AG100): 32 to 64 µg/mL |
| CCN1CCN(C(=O)NC(C(=O)N[C@H]2Cc3cccc(C(=O)O)c3OB2O)c2ccc(OC)c(OC)c2)C(=O)C1=O (stereo partly drawn) [Example 21, (3R)-3-(2-(3,4-dimethoxyphenyl)-2-(4-ethyl-2,3-dioxopiperazine-1-carboxamido)acetamido)-2-hydroxy-3,4-dihydro-2H-benzo[e][1,2]oxaborinine-8-carboxylic acid] | 128 to 256 mg/L (≈ 225 to 450 µM) | 3.30 to 4.52 | 128 to 256 mg/L (≈ 225 to 450 µM) |  |
| CCN1CCN(C(=O)N[C@H](C(=O)N[C@H]2Cc3cccc(C(=O)O)c3OB2O)c2ccc(O)c(O)c2)C(=O)C1=O [Example 38, (R)-3-((S)-2-(3,4-dihydroxyphenyl)-2-(4-ethyl-2,3-dioxopiperazine-1-carboxamido)acetamido)-2-hydroxy-3,4-dihydro-2H-benzo[e][1,2]oxaborinine-8-carboxylic acid] | 2 to 4 mg/L (≈ 3.7 to 7.4 µM) | 3.30 to 4.52 | 2 to 4 mg/L (≈ 3.7 to 7.4 µM) |  |
